ChEMBL document CHEMBL5104129, “Discovery of a novel 2-spiroproline steroid mimetic scaffold for the potent inhibition of 11β-HSD1” (Bioorg Med Chem Lett, 2022)

Columns and labels:
[1] = biological target: T1, 11-beta-hydroxysteroid dehydrogenase 1 (Homo sapiens, UniProt P28845); experiment: Inhibition of 11beta-HSD1 (unknown origin) using 3H-cortisone as substrate by scintillation proximity assay
[2] = biological target: T1, 11-beta-hydroxysteroid dehydrogenase 1; experiment: Inhibition of 11beta-HSD1 in human PBMC cells using 3H-cortisone as substrate assessed as conversion of cortisone to cortisol by ELISA; format: cell-based
hERG (KCNH2) = hERG (KCNH2) (Homo sapiens, UniProt Q12809); experiment: Inhibition of human ERG expressed in CHO cells at 30 uM at -80 mV holding potential by automated patch clamp assay relative to control; format: toxicity, cell-based; conditions: CHO cells expressing human ERG
PXR (NR1I2) [3] = biological target: T2, PXR (NR1I2) (Homo sapiens, UniProt O75469); experiment: Activation of human PXR assessed as induction of PXR activity at 10 uM relative to control; conditions: read-out: Activity
T2 sequence (O75469 whole entry): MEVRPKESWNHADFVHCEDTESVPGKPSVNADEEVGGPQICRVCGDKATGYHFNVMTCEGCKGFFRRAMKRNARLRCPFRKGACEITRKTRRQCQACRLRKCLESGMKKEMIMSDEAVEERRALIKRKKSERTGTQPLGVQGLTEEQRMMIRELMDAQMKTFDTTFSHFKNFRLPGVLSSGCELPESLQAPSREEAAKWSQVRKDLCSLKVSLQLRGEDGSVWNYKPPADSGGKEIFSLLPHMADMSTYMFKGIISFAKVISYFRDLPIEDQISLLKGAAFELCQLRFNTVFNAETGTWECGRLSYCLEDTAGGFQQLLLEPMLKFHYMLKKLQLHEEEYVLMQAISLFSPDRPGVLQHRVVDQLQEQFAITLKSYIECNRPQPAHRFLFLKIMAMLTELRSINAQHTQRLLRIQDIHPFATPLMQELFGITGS

PXR (NR1I2) [4] = biological target: T3, PXR (NR1I2) (Rattus norvegicus, UniProt Q9R1A7); experiment: Activation of rat PXR assessed as induction of PXR activity at 10 uM relative to control; conditions: read-out: Activity
T3 sequence (Q9R1A7 whole entry): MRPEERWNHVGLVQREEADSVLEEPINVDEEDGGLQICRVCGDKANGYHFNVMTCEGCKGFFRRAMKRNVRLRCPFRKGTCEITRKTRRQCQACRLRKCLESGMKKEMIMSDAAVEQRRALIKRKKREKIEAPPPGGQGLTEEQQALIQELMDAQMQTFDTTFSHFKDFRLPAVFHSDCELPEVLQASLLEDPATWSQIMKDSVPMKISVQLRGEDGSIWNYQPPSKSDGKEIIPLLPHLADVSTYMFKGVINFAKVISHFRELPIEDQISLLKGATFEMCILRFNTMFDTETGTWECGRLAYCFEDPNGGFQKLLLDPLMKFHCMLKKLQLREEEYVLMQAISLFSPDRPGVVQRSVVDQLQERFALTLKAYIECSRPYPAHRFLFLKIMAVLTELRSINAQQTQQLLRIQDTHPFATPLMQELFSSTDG

hERG (KCNH2), sequence (Q12809 whole entry): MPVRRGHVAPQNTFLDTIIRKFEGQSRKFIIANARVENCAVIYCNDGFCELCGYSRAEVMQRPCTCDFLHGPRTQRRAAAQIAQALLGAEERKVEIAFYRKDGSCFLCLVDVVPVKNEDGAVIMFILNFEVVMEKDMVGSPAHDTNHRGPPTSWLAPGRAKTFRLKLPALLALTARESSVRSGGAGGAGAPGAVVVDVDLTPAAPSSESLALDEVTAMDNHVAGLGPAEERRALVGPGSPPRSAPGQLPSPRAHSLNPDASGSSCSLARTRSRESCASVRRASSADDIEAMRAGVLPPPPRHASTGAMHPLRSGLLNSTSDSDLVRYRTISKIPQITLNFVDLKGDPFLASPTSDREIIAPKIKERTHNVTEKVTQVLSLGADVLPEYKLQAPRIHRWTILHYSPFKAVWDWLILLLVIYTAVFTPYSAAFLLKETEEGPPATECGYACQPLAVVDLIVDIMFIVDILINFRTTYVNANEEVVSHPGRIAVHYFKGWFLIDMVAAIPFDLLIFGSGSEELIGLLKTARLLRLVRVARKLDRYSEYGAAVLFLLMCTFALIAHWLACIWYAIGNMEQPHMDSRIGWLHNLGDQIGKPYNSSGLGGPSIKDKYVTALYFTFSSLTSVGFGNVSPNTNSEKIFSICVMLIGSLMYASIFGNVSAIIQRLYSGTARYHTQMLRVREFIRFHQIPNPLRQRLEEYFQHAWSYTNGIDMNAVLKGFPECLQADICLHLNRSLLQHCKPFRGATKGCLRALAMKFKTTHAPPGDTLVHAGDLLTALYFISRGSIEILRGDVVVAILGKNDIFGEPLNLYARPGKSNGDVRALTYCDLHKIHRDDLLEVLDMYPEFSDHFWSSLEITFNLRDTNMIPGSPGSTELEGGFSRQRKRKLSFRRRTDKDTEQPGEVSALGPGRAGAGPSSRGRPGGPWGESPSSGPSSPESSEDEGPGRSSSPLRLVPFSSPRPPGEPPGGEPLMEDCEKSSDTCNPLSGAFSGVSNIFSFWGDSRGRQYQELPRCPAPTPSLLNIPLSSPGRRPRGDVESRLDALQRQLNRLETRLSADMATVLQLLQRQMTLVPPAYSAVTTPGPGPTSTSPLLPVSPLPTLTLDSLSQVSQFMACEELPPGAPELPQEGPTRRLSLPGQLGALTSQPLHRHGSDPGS
T1 sequence (P28845 whole entry): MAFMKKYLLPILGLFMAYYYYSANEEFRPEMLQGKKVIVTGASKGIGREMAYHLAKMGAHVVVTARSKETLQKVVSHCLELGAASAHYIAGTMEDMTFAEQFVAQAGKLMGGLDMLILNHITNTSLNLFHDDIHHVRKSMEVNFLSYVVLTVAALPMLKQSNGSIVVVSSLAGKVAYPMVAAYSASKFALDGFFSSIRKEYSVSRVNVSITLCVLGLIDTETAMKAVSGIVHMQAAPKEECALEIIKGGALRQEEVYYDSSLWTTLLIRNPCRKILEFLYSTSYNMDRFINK

Structure (SMILES) | IC50 [1] [µM] | IC50 [2] [µM] | inhibition at 30 µM (hERG (KCNH2)) [%] | activity at 10 µM (PXR (NR1I2) [3]) [%] | activity at 10 µM (PXR (NR1I2) [4]) [%]
O=C1N(C2CCCCC2)CC[C@]12C[C@@H](O)CN2CC1CCCC1 | 0.03 |  |  |  | 
O=C1N(C2CCCCC2)CCC12CCCN2Cc1cccc(C(F)(F)F)c1 (stereo unspecified) | 0.04 |  |  |  | 
CCNC(=O)c1ccc(-c2cc(CN3C[C@H](O)C[C@]34CCN(C3CCCCC3)C4=O)ccc2F)cn1 | 0.062 | > 0.037 |  |  | 
O=C1N(C2CCCCC2)CCC12CCCN2CC1CC1 (stereo unspecified) | 0.134 |  |  |  | 
O=C1N(C2CCCCC2)CCC12CCCN2Cc1ccccc1C(F)(F)F (stereo unspecified) | 0.015 |  |  |  | 
N#Cc1cncc(-c2ccc(CN3C[C@H](O)C[C@]34CCN(C3CCCCC3)C4=O)cc2)c1 | 0.188 |  |  |  | 
CNC(=O)c1ccc(-c2ccc(CN3C[C@@H](F)C[C@]34CCN(C3CCCCC3)C4=O)cc2)cn1 | 0.002 | 0.0059 | 49 | 14 | 24
N#Cc1cccc(-c2ccc(CN3C[C@H](O)C[C@]34CCN(C3CCCCC3)C4=O)cn2)c1 | 0.092 | > 0.037 |  |  | 
O=C1N(C2CCCC2)CCC12CCCN2Cc1ccc(Cl)cc1 (stereo unspecified) | 0.026 |  |  |  | 
O=C1N(C23CC4CC(CC(C4)C2)C3)CCC12CCCN2CC1CCCC1 (stereo unspecified) | 0.051 |  |  |  | 
O=C1N(C2CCCCC2)CCC12CCCN2CC1CCCC1 (stereo unspecified) | 0.036 |  |  |  | 
O=C1N(C2CCCCC2)CCC12CCCN2Cc1ccc(C(F)(F)F)cc1 (stereo unspecified) | 0.007 |  | 27 | 80 | 12
O=C1N(C2CCCCC2)CC[C@]12C[C@@H](O)CN2CC1CCCCC1 | 0.015 | 0.007 | 8.1 | 9 | 14
CCNC(=O)c1ccc(-c2ccc(CN3CCCC34CCN(C3CCCCC3)C4=O)cc2)cn1 (stereo unspecified) | 0.023 |  | 15 | 13 | 31
O=C1N(C2CCCCC2)CC[C@]12C[C@@H](O)CN2Cc1ccc(-c2ccncc2)cc1 | 0.007 | 0.0066 |  |  | 
O=C1N(C2CCCCC2)CC[C@]12C[C@H](F)CN2Cc1ccc(Cl)cc1 | 0.002 | 0.0051 | 52 | 48 | 123
CC(C1CCC1)N1C[C@H](O)C[C@]12CCN(C1CCCCC1)C2=O (stereo partly specified) | 0.007 | 0.0039 | -15 | 4.5 | 9
O=C1N(C2CCOCC2)CCC12CCCN2Cc1ccc(Cl)cc1 (stereo unspecified) | 0.045 |  |  |  | 
CC(C1CCCCC1)N1C[C@H](O)C[C@]12CCN(C1CCCCC1)C2=O (stereo partly specified) | 0.005 | 0.0019 | 14 | 10 | 58
O=C1N(C2CCCCC2)CCC12CCCN2Cc1ccc(Cl)cc1 (stereo unspecified) | 0.008 |  | 45 | 46 | 22
O=C1N([C@H]2CC[C@H](O)CC2)CCC12CCCN2Cc1ccc(Cl)cc1 (stereo partly specified) | 0.03 |  | 13 | 0.5 | 2
O=C1N(C2CCCCC2)CCC12CCCN2Cc1ccccn1 (stereo unspecified) | 0.063 |  |  |  | 
O=C1N(C2CCCCC2)CCC12CCCN2C1CCC1 (stereo unspecified) | > 1 |  |  |  | 
N#Cc1ccc(-c2ccc(CN3C[C@H](O)C[C@]34CCN(C3CCCCC3)C4=O)nc2)cc1 | 0.23 |  |  |  | 
N#Cc1ccc(-c2ccc(CN3C[C@H](O)C[C@]34CCN(C3CCCCC3)C4=O)cn2)cc1 | 0.018 | 0.035 |  |  | 

Structure (SMILES) | IC50 [1] [µM] | IC50 [2] [µM] | inhibition at 30 µM (hERG (KCNH2)) [%] | activity at 10 µM (PXR (NR1I2) [3]) [%] | activity at 10 µM (PXR (NR1I2) [4]) [%]
CC(C1CC1)N1C[C@H](O)C[C@]12CCN(C1CCCCC1)C2=O (stereo partly specified) | 0.4 | > 0.037 | -10 | 1 | 2
CCN1C[C@@H](O)C[C@]12CCN(C1CCCCC1)C2=O | 0.015 | 0.021 | 11 | 56 | 28
CC(C)NC(=O)c1ccc(-c2ccc(CN3C[C@H](O)C[C@]34CCN(C3CCCCC3)C4=O)cc2F)cn1 | 0.005 | 0.0049 |  |  | 
O=C1N(C23CC4CC(CC(C4)C2)C3)CCC12CCCN2Cc1ccccn1 (stereo unspecified) | 0.134 |  |  |  | 
O=C1N(C2CCCCC2)CC[C@]12C[C@@H](O)CN2Cc1ccc(-c2ccc(F)cc2)nc1 | 0.08 | > 0.037 |  |  | 
O=C1N(C2CCCCC2)CC[C@]12C[C@@H](O)CN2C1CCCC1 | 0.351 |  |  |  | 
O=C1N(C2CCCCC2)CCC12CCCN2CC1CCOC1 (stereo unspecified) | 0.46 |  |  |  | 
CC1(O)CN(Cc2ccc(Cl)cc2)[C@@]2(CCN(C3CCCCC3)C2=O)C1 (stereo partly specified) | 0.999 | > 0.037 | 13 | 9.5 | 41
O=C1N(C2CCCCC2)CCC12C[C@@H](O)CN2Cc1ccc(Cl)cc1 (stereo partly specified) | 0.007 |  | 27 | 18 | 10
O=C1N(C2CCCCC2)CC[C@]12C[C@@H](O)CN2Cc1ccc(Cl)cc1 | 0.006 | 0.0062 | 14 | 42 | 16
CNC(=O)c1ccc(-c2ccc(CN3C[C@H](O)C[C@]34CCN(C3CCCCC3)C4=O)cc2)cn1 | 0.003 | 0.0072 | -14 | -0.3 | -0.3
O=C1N(c2ccccc2Cl)CCC12CCCN2CC1CC1 (stereo unspecified) | 0.5 |  |  |  | 
O=C1N(C2CCCCCC2)CCC12CCCN2Cc1ccc(Cl)cc1 (stereo unspecified) | 0.007 |  |  |  | 
CN(C)C(=O)c1ccc(-c2ccc(CN3C[C@H](O)C[C@]34CCN(C3CCCCC3)C4=O)cc2)cn1 | 0.035 |  |  |  | 
N#Cc1ccc(CN2CCCC23CCN(C2CCCCC2)C3=O)cc1 (stereo unspecified) | 0.029 |  |  |  | 
O=C1N(C23CC4CC(CC(C4)C2)C3)CCC12CCCN2c1ccc(C(F)(F)F)cn1 (stereo unspecified) | > 1 |  |  |  | 
CC(C)CN1CCCC12CCN(C13CC4CC(CC(C4)C1)C3)C2=O (stereo unspecified) | 0.4 |  |  |  | 
O=C(c1ccccn1)N1CCCC12CCN(C1CCCCC1)C2=O (stereo unspecified) | > 1 |  |  |  | 
O=C1N(C2CCCCC2)CC[C@@]12C[C@H](O)CN2Cc1ccc(Cl)cc1 | > 1 | > 0.037 | -4.3 | 52 | 12
CNC(=O)c1ccc(-c2ccc(CN3C[C@H](O)C[C@]34CCN(C3CCCCC3)C4=O)cc2F)cn1 | 0.013 | 0.0095 |  |  | 
CNC(=O)c1ccc(-c2ccc(CN3C[C@H](O)C[C@]34CCN(C3CCCCC3)C4=O)c(F)c2)cn1 | 0.009 | 0.017 |  |  | 
CCNC(=O)c1ccc(-c2cccc(CN3C[C@H](O)C[C@]34CCN(C3CCCCC3)C4=O)c2)cn1 | 0.227 | > 0.037 |  |  | 
N#Cc1ccnc(-c2ccc(CN3C[C@H](O)C[C@]34CCN(C3CCCCC3)C4=O)cc2)c1 | 0.035 |  |  |  | 
CC(C)N1C[C@H](O)C[C@]12CCN(C1CCCCC1)C2=O | > 1 | > 0.037 | 0 | -0.5 | -0.5
